IC50 data for 31 compounds are collected here from patent publication US20170037028A1 (BAYER PHARMA AKTIENGESELLSCHAFT, priority 2013, published 2017).

The target in the test is T1, GLUT1 (Homo sapiens, UniProt P11166).
T1 sequence (P11166 1-492): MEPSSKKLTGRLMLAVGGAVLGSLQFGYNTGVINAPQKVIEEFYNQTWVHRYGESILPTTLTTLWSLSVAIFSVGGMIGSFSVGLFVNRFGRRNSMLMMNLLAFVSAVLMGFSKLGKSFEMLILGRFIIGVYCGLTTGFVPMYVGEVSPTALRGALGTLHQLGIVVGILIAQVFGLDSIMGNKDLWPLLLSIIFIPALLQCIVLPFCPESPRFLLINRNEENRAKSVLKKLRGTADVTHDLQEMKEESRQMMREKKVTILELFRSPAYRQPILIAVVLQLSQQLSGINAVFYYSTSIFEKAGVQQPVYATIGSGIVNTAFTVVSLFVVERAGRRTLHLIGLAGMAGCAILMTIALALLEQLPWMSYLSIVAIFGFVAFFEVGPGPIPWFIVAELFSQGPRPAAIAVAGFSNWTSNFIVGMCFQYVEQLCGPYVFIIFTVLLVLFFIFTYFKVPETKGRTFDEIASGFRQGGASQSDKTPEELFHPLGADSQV
Put plainly: Indirect measurement of GLUT1 activity by quantification of intracellular ATP levels (glucose induced ATP increase). The arrangement: endogenous in cells; host or cells: DLD1 or CHO-K1. Format: cell-based. Particulars: read-out: IC50 regarding glucose induced ATP increase (GLUT1 inhibition). In short, it runs like this: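 DLD1 or CHO-K1 cells were starved overnight in glucose-free medium with 1% FCS, then combined with an oxidative phosphorylation inhibitor. GLUT1 activity was read as glucose-induced ATP increase, GLUT2 as fructose-induced. Intracellular ATP was quantified by CellTiter-Glo luminescence.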
Regarding `Cc1nn(Cc2ccc(C#N)cn2)c(C)c1NC(=O)c1cc(C(N)=O)nc2cc(F)ccc12` [Example 356, N^4-{1-[(5-cyanopyridin-2-yl)methyl]-3,5-dimethyl-1H-pyrazol-4-yl}-7-fluoroquinoline-2,4-dicarboxamide], the IC50 (commonly the point on the concentration scale where inhibition reaches its midpoint) is 0.0093 µM. Take `Cc1nn(Cc2ccc(CC(=O)N3CCOCC3)cc2)c(C)c1NC(=O)c1cc(C(F)(F)F)nc2ccc(Br)cc12` [Example 158, 6-bromo-N-(3,5-dimethyl-1-{4-[2-(morpholin-4-yl)-2-oxoethyl]benzyl}-1H-pyrazol-4-yl)-2-(trifluoromethyl)quinoline-4-carboxamide]: the 50% inhibitory concentration (IC50) worked out at 0.521 µM. Under `Cc1nn(Cc2ccc(C(=O)O)cc2)c(C)c1NC(=O)c1cc(C(F)(F)F)nc2ccc(Br)cc12` [Example 132, 4-{[4-({[6-bromo-2-(trifluoromethyl)quinolin-4-yl]carbonyl}amino)-3,5-dimethyl-1H-pyrazol-1-yl]methyl}benzoic acid] stands 5.56 µM; under `CC(=O)c1cccc(Cn2nc(C(F)(F)F)c(NC(=O)c3cc(C(N)=O)nc4cc(F)ccc34)c2C)c1` [Example 1619], 0.0401 µM; under `Cc1c(NC(=O)c2cc(C(N)=O)nc3cc(F)ccc23)c(C(F)(F)F)nn1Cc1ccc(C(=O)N(C)C)cc1` [Example 371, N^4-{1-[4-(dimethylcarbamoyl)benzyl]-5-methyl-3-(trifluoromethyl)-H-pyrazol-4-yl}-7-fluoroquinoline-2,4-dicarboxamide], 0.243 µM. The value for `CCc1nn(Cc2ccc(C#N)cc2)c(CC)c1NC(=O)c1cc(C(N)=O)nc2cc(F)c(Cl)cc12` [Example 311, 6-chloro-N^4-[1-(4-cyanobenzyl)-3,5-diethyl-1H-pyrazol-4-yl]-7-fluoroquinoline-2,4-dicarboxamide] was 0.006 µM; that for `CCOC(=O)c1cc(Cn2nc(C)c(NC(=O)c3cc(C(N)=O)nc4cc(F)ccc34)c2C)on1` [Example 1670] was 0.0171 µM; that for `Cc1c(NC(=O)c2cc(C(=O)NS(C)(=O)=O)nc3ccccc23)c(C(F)(F)F)nn1Cc1ccc(C#N)cc1` [Example 426, N^4-[1-(4-cyanobenzyl)-5-methyl-3-(trifluoromethyl)-1H-pyrazol-4-yl]-N^2-(methylsulfonyl)quinoline-2,4-dicarboxamide] was 2.53 µM. Consider `CCc1ccc(Cn2nc(C(F)(F)F)c(NC(=O)c3cc(C(N)=O)nc4cc(F)c(Cl)cc34)c2C)cc1` [Example 1415], for which the half-maximal inhibitory concentration (IC50) was found to be 0.0033 µM. Regarding `CNC(=O)c1nc(Cn2nc(C(F)(F)F)c(NC(=O)c3cc(C(N)=O)nc4cc(F)ccc34)c2C)no1` [Example 1559], the IC50 came out at 0.0727 µM.

As for `Cc1ccc2nc(C)cc(C(=O)Nc3c(C)nn(Cc4ccc(F)cc4F)c3C)c2c1` [Example 96, N-[1-(2,4-difluorobenzyl)-3,5-dimethyl-1H-pyrazol-4-yl]-2,6-dimethylquinoline-4-carboxamide], the half-maximal inhibitory concentration (IC50) worked out at 0.344 µM. Turning to `Cc1cccnc1Cn1nc(C)c(NC(=O)c2cc(C(F)(F)F)nc3c(Cl)cc(Cl)cc23)c1C` [Example 82, 6,8-dichloro-N-{3,5-dimethyl-1-[(3-methylpyridin-2-yl)methyl]-1H-pyrazol-4-yl}-2-(trifluoromethyl)quinoline-4-carboxamide], the IC50 was found to be 0.25 µM.

Take `Cc1nn(Cc2ccc(C(=O)N[C@H](C)[C@@H](C)O)cc2)c(C)c1NC(=O)c1cc(C(F)(F)F)nc2ccc(Br)cc12` (relative stereo) [Example 1057]: the IC50 is 0.0151 µM. The value for `Cc1c(NC(=O)c2cc(C(N)=O)nc3cc(F)ccc23)c(C(F)(F)F)nn1Cc1ccc(C(C)(C)C#N)cc1` [Example 1596] was 0.0672 µM; that for `Cc1nn(Cc2ccc(C#N)cc2)c(C)c1NC(=O)c1cc(C(N)=O)nc2ccc(F)cc12` [Example 228, N^4-[1-(4-cyanobenzyl)-3,5-dimethyl-1H-pyrazol-4-yl]-6-fluoroquinoline-2,4-dicarboxamide] was 0.0046 µM. Regarding `COc1ccc(Cn2nc(C)c(NC(=O)c3cc(C(N)=O)nc4cc(F)ccc34)c2C)cc1` [Example 275, 7-fluoro-N^4-[1-(4-methoxybenzyl)-3,5-dimethyl-1H-pyrazol-4-yl]quinoline-2,4-dicarboxamide], the IC50 is 0.0011 µM. On to `Cc1nn(Cc2ccc(C(=O)NC[C@@H]3CCCO3)cc2)c(C)c1NC(=O)c1cc(C(F)(F)F)nc2ccc(Br)cc12` [Example 1164], for which the IC50 came to 0.167 µM. On to `Cc1nn(Cc2ccc(S(C)(=O)=O)cc2)c(C)c1NC(=O)c1cc(C(N)=O)nc2ccc(Br)cc12` [Example 1486], for which the half-inhibitory concentration (IC50) turned out to be 0.0096 µM. Regarding `Cc1cc(Cn2nc(C(F)(F)F)c(NC(=O)c3cc(C(N)=O)nc4cccc(F)c34)c2C)ccc1C#N` [Example 1694], the IC50 was 0.0012 µM.

For the compound `Cc1nn(Cc2ccccc2C#N)c(C)c1NC(=O)c1cc(C(N)=O)nc2ccccc12` [Example 232, N^4-[1-(2-cyanobenzyl)-3,5-dimethyl-1H-pyrazol-4-yl]quinoline-2,4-dicarboxamide], the concentration for half-maximal inhibition (IC50) stood at 0.007 µM. With `Cc1nn(Cc2ccc(F)cc2)c(C)c1NC(=O)c1cc(C(N)=O)nc2c(Cl)cc(Cl)cc12` [Example 127, 6,8-dichloro-N^4-[1-(4-fluorobenzyl)-3,5-dimethyl-1H-pyrazol-4-yl]quinoline-2,4-dicarboxamide], the IC50 is 0.0031 µM. With `Cc1c(NC(=O)c2cc(C(N)=O)nc3cc(F)ccc23)c(C(F)(F)F)nn1Cc1ccc(-c2nnn[nH]2)cc1` [Example 400, 7-fluoro-N^4-{5-methyl-1-[4-(1H-tetrazol-5-yl)benzyl]-3-(trifluoromethyl)-1H-pyrazol-4-yl}quinoline-2,4-dicarboxamide], the concentration for half-maximal inhibition (IC50) is 1.26 µM. Regarding `CC(=O)N1CCC(Cn2nc(C)c(NC(=O)c3cc(C(N)=O)nc4ccccc34)c2C)CC1` [Example 1213], the half-inhibitory concentration (IC50) amounted to 0.614 µM. For `Cc1nn(Cc2cc(F)ccc2F)c(C)c1NC(=O)c1cc(C(F)(F)F)nc2c(Cl)cc(Cl)cc12` [Example 1295], the half-maximal inhibitory concentration (IC50) came out at 8.15 µM. Regarding `Cc1cc(F)ccc1Cn1nc(C(F)(F)F)c(NC(=O)c2cc(C(N)=O)nc3cc(F)ccc23)c1C` [Example 1710], the IC50 came out at 0.0038 µM.

Regarding `CC(=O)c1cccc(Cn2nc(C)c(NC(=O)c3cc(C(N)=O)nc4cc(F)ccc34)c2C)c1` [Example 1625], the 50% inhibitory concentration (IC50) amounted to 0.0409 µM. In the case of `Cc1cc(Cn2nc(C)c(NC(=O)c3cc(C(N)=O)nc4cc(F)c(Cl)cc34)c2C)ccc1C#N` [Example 1696], the IC50 came out at 0.0009 µM. `Cc1nn(Cc2ccc(F)cc2)c(C)c1NC(=O)c1cc(N2CCOCC2)nc2ccccc12` [Example 198, N-[1-(4-fluorobenzyl)-3,5-dimethyl-1H-pyrazol-4-yl]-2-(morpholin-4-yl)quinoline-4-carboxamide]: the half-inhibitory concentration (IC50) is 0.438 µM. Under `Cc1c(NC(=O)c2cc(C(N)=O)nc3cc(F)c(Cl)cc23)c(C(F)(F)F)nn1Cc1c(F)cccc1F` [Example 1630] stands 0.004 µM; under `Cc1c(NC(=O)c2cc(C(N)=O)nc3cc(F)ccc23)c(C(F)(F)F)nn1Cc1ccc(C(=O)O)cc1` [Example 368, 4-{[4-{[(2-carbamoyl-7-fluoroquinolin-4-yl)carbonyl]amino}-5-methyl-3-(trifluoromethyl)-1H-pyrazol-1-yl]methyl}benzoic acid], 0.418 µM; under `CCc1nn(Cc2ccc(C#N)cc2)c(CC)c1NC(=O)c1cc(C(N)=O)nc2cc(F)ccc12` [Example 312, N^4-[1-(4-cyanobenzyl)-3,5-diethyl-1H-pyrazol-4-yl]-7-fluoroquinoline-2,4-dicarboxamide], 0.0355 µM.
